In patent US12637437B2, “Herbicidal compounds” (SYNGENTA CROP PROTECTION AG, priority 2021, dated 2026):

Experiments:
Type in all cases: in vivo
[1] = system: Amaranthus retoflexus (AMARE); assay: Post-emergence herbicidal glasshouse test, AMARE; parameters: dose or concentration left out as unconfirmed; details: evaluated after 13 days, five-point scale
Method: (§1) Seeds of a variety of test species are sown in standard soil in pots (Lolium perenne (LOLPE), Amaranthus retoflexus (AMARE), Abutilon theophrasti (ABUTH), Setaria faberi (SETFA), Echinochloa crus-galli (ECHCG), Ipomoea hederacea (IPOHE)). After cultivation for one day (pre-emergence) or after 8 days cultivation (post-emergence) under controlled conditions in a glasshouse (at 24/16° C., day/night; 14 hours light; 65% humidity), the plants are sprayed with an aqueous spray solution derived from the formulation of the technical active ingredient in acetone/water (50:50) solution containing 0.5% Tween 20 (polyoxyethelyene sorbitan monolaurate, CAS RN 9005-64-5). Compounds are applied at 125 g/h unless otherwise indicated. The test plants are then grown in a glasshouse under controlled conditions in a glasshouse (at 24/16° C., day/night; 14 hours light; 65% humidity) and watered twice daily. After 13 days for pre and post-emergence, the test is evaluated for the percentage damage caused to the plant. The biological activities are shown in the following table on a five-point scale (5=80-100%; 4=60-79%; 3=40-59%; 2=20-39%; 1=0-19%). “—” denotes not tested on this species or data not captured.

Setaria faberi (SETFA) [2] = assay: Post-emergence herbicidal glasshouse test, SETFA; details: 125 g/h, evaluated after 13 days, five-point scale
Method: as §1

[3] = system: Echinochloa crus-galli (ECHCG); assay: Post-emergence herbicidal glasshouse test, ECHCG; details: 125 g/h, evaluated after 13 days, five-point scale
Method: as §1

[4] = system: Ipomoea hederacea (IPOHE); assay: Post-emergence herbicidal glasshouse test, IPOHE; details: 125 g/h, evaluated after 13 days, five-point scale
Method: as §1

[5] = system: Amaranthus retoflexus (AMARE); assay: Pre-emergence herbicidal glasshouse test, AMARE; details: 125 g/h, evaluated after 13 days, five-point scale
Method: as §1

Setaria faberi (SETFA) [6] = assay: Pre-emergence herbicidal glasshouse test, SETFA; details: 125 g/h, evaluated after 13 days, five-point scale
Method: as §1

[7] = system: Echinochloa crus-galli (ECHCG); assay: Pre-emergence herbicidal glasshouse test, ECHCG; details: 125 g/h, evaluated after 13 days, five-point scale
Method: as §1

[8] = system: Ipomoea hederacea (IPOHE); assay: Pre-emergence herbicidal glasshouse test, IPOHE; details: 125 g/h, evaluated after 13 days, five-point scale
Method: as §1

Row | SMILES | percentage damage caused to the plant, POST Application AMARE [1] | percentage damage caused to the plant, POST Application SETFA (Setaria faberi (SETFA) [2]) | percentage damage caused to the plant, POST Application ECHCG [3] | percentage damage caused to the plant, POST Application IPOHE [4] | percentage damage caused to the plant, PRE Application AMARE [5] | percentage damage caused to the plant, PRE Application SETFA (Setaria faberi (SETFA) [6]) | percentage damage caused to the plant, PRE Application ECHCG [7] | percentage damage caused to the plant, PRE Application IPOHE [8]
1 | COCCCOC(=O)Nc1c(OC(F)(F)F)ccc(C(=O)Nc2nnnn2C)c1Cl [Compound 1.019] | 5 (5=80-100%) | 5 (5=80-100%) | 5 (5=80-100%) | 4 (4=60-79%) | 3 (3=40-59%) | 2 (2=20-39%) | 5 (5=80-100%) | 4 (4=60-79%)
2 | Cn1nnnc1NC(=O)c1ccc(OC(F)(F)F)c(NC(=O)OC2CCOCC2)c1Cl [Compound 1.020] | 5 (5=80-100%) | 5 (5=80-100%) | 5 (5=80-100%) | 5 (5=80-100%) | 5 (5=80-100%) | 5 (5=80-100%) | 5 (5=80-100%) | 5 (5=80-100%)
3 | CC(=O)N1CCC(OC(=O)Nc2c(OC(F)(F)F)ccc(C(=O)Nc3nnnn3C)c2Cl)CC1 [Compound 1.021] | 4 (4=60-79%) | 4 (4=60-79%) | 5 (5=80-100%) | 2 (2=20-39%) | 3 (3=40-59%) | 1 (1=0-19%) | 1 (1=0-19%) | 2 (2=20-39%)
4 | COCCCOC(=O)Nc1c(OC(F)F)ccc(C(=O)Nc2nnnn2C)c1Cl [Compound 1.022] | 5 (5=80-100%) | 5 (5=80-100%) | 5 (5=80-100%) | 4 (4=60-79%) | 5 (5=80-100%) | 4 (4=60-79%) | 4 (4=60-79%) | 4 (4=60-79%)
5 | Cn1nnnc1NC(=O)c1ccc(OC(F)F)c(NC(=O)OC2COC2)c1Cl [Compound 1.026] | 5 (5=80-100%) |  | 5 (5=80-100%) | 5 (5=80-100%) | 5 (5=80-100%) | 3 (3=40-59%) | 5 (5=80-100%) | 4 (4=60-79%)
6 | Cn1nnnc1NC(=O)c1ccc(OC(F)F)c(NC(=O)OCCS(C)(=O)=O)c1Cl [Compound 1.028] | 5 (5=80-100%) |  | 2 (2=20-39%) | 3 (3=40-59%) | 5 (5=80-100%) | 1 (1=0-19%) | 3 (3=40-59%) | 2 (2=20-39%)
7 | COC(=O)N(C)c1c(OC(F)(F)F)ccc(C(=O)Nc2nnnn2C)c1Cl [Compound 1.029] | 5 (5=80-100%) |  | 5 (5=80-100%) | 5 (5=80-100%) | 5 (5=80-100%) | 5 (5=80-100%) | 5 (5=80-100%) | 5 (5=80-100%)
8 | CCN(C(=O)OC)c1c(OC(F)(F)F)ccc(C(=O)Nc2nnnn2C)c1Cl [Compound 1.030] | 5 (5=80-100%) |  | 5 (5=80-100%) | 5 (5=80-100%) | 5 (5=80-100%) | 5 (5=80-100%) | 5 (5=80-100%) | 4 (4=60-79%)
